Assays:
[1] = target: D(3) dopamine receptor (Homo sapiens) (UniProt P35462); conditions: Compound concentration 10.0 uM
[2] = target: Neutrophil elastase (Homo sapiens) (UniProt P08246); experiment: Peptidase, ELA2 (Neutrophil Elastase 2) Eurofins-Panlabs enzyme assay; conditions: Compound concentration 30.0 uM
[3] = target: 5-hydroxytryptamine receptor 4 (Homo sapiens) (UniProt Q13639); experiment: Inhibition of Serotonin (5-Hydroxytryptamine) 5-HT4 at 10 µM in the Eurofins-Panlabs radioligand binding assay (Eurofins_assay_272000); conditions: Cavia porcellus; Compound concentration 10.0 uM
Rattus norvegicus = organism: Rattus norvegicus; conditions: Compound concentration 10.0 uM
[4] = target: Polyunsaturated fatty acid lipoxygenase ALOX15 (Homo sapiens) (UniProt P16050); experiment: Inhibition of Lipoxygenase 15-LO at 10 µM in the Eurofins-Panlabs enzyme assay (Eurofins_assay_138000); conditions: Oryctolagus cuniculus; Compound concentration 10.0 uM
[5] = target: D(2) dopamine receptor (Homo sapiens) (UniProt P14416); conditions: Compound concentration 10.0 uM
CYP2C9 = CYP2C9 (Homo sapiens, UniProt P11712); experiment: CYP450, 2C9 Eurofins-Panlabs enzyme assay; conditions: compound concentration 10 uM
[6] = target: 5-hydroxytryptamine receptor 1A (Homo sapiens) (UniProt P08908); conditions: Compound concentration 10.0 uM
[7] = target: Beta-2 adrenergic receptor (Homo sapiens) (UniProt P07550); conditions: Compound concentration 10.0 uM
[8] = target: Vasoactive intestinal polypeptide receptor 1 (Homo sapiens) (UniProt P32241); experiment: Inhibition of Vasoactive Intestinal Peptide VIP1 at 10 µM in the Eurofins-Panlabs radioligand binding assay (Eurofins_assay_287010); conditions: Compound concentration 10.0 uM
[9] = target: Platelet-activating factor receptor (Homo sapiens) (UniProt P25105); experiment: Inhibition of Platelet Activating Factor (PAF) at 10 µM in the Eurofins-Panlabs radioligand binding assay (Eurofins_assay_265010); conditions: Compound concentration 10.0 uM
[10] = target: Interstitial collagenase (Homo sapiens) (UniProt P03956); experiment: Inhibition of Peptidase, Matrix Metalloproteinase-1 (MMP-1) at 10 µM in the Eurofins-Panlabs enzyme assay (Eurofins_assay_114110); conditions: Compound concentration 10.0 uM
CYP1A2 = CYP1A2 (Homo sapiens, UniProt P05177); experiment: CYP450, 1A2 Eurofins-Panlabs enzyme assay; conditions: compound concentration 10 uM
[11] = target: Beta-3 adrenergic receptor (Homo sapiens) (UniProt P13945); conditions: Compound concentration 10.0 uM
[12] = target: T1, Muscarinic acetylcholine receptor M1 (Homo sapiens) (UniProt P11229); conditions: Compound concentration 10.0 uM
T1 sequence (whole entry): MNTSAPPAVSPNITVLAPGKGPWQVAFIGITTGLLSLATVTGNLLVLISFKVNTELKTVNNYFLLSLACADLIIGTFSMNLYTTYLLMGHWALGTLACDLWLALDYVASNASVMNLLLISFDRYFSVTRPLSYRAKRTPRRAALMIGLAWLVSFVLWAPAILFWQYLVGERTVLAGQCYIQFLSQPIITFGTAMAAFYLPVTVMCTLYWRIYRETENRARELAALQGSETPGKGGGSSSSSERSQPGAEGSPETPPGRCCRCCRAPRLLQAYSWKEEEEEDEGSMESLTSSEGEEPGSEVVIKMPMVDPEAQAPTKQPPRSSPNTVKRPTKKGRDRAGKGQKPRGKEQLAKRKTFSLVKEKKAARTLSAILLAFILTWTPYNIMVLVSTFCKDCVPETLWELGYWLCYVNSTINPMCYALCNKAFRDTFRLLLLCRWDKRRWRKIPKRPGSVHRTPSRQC

[13] = target: T2, Alpha-1A adrenergic receptor (Homo sapiens) (UniProt P35348); conditions: Rattus norvegicus; Compound concentration 10.0 uM
T2 sequence (whole entry): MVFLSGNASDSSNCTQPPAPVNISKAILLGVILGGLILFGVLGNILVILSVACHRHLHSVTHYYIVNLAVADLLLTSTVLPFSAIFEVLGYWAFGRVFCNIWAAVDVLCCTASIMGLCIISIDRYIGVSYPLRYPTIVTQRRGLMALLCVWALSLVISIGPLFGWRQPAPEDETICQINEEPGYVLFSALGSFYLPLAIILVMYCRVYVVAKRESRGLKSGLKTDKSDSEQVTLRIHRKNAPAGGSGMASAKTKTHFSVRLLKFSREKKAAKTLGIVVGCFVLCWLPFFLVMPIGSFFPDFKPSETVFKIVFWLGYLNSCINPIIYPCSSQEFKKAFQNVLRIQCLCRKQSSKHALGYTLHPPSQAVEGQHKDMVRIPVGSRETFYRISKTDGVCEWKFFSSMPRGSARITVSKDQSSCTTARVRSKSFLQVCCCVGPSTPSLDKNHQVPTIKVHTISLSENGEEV

[14] = target: B2 bradykinin receptor (Homo sapiens) (UniProt P30411); conditions: Compound concentration 10.0 uM
[15] = target: T3, Alpha-2B adrenergic receptor (Homo sapiens) (UniProt P18089); conditions: Compound concentration 10.0 uM
T3 sequence (whole entry): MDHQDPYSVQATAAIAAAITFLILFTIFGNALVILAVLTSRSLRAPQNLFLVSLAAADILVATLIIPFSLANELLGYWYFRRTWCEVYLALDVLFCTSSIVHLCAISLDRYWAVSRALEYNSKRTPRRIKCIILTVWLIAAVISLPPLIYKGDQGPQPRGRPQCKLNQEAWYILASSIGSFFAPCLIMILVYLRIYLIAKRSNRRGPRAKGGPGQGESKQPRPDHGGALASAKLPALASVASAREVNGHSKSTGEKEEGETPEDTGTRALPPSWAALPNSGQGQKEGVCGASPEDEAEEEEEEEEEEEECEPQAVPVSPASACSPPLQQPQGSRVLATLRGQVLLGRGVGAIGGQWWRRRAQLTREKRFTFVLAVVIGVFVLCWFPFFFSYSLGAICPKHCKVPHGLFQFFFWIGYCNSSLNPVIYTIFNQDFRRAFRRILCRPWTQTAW

[16] = target: Sodium-dependent noradrenaline transporter (Homo sapiens) (UniProt P23975); conditions: Compound concentration 10.0 uM
[17] = target: Mitogen-activated protein kinase 1 (Homo sapiens) (UniProt P28482); experiment: Inhibition of Protein Serine/Threonine Kinase, MAPK1 (ERK2) at 10 µM in the Eurofins-Panlabs enzyme assay (Eurofins_assay_171120); parameters: substrate with concentration; conditions: Compound concentration 10.0 uM
[18] = target: Adenosine receptor A2a (Homo sapiens) (UniProt P29274); conditions: Compound concentration 10.0 uM
[19] = target: Cholecystokinin receptor type A (Homo sapiens) (UniProt P32238); experiment: Inhibition of Cholecystokinin CCK1 (CCKA) at 10 µM in the Eurofins-Panlabs radioligand binding assay (Eurofins_assay_218020); conditions: Compound concentration 10.0 uM
CYP2D6 = CYP2D6 (Homo sapiens, UniProt P10635); experiment: CYP450, 2D6 Eurofins-Panlabs enzyme assay; conditions: compound concentration 10 uM

CYP1A2, sequence (P05177 whole entry): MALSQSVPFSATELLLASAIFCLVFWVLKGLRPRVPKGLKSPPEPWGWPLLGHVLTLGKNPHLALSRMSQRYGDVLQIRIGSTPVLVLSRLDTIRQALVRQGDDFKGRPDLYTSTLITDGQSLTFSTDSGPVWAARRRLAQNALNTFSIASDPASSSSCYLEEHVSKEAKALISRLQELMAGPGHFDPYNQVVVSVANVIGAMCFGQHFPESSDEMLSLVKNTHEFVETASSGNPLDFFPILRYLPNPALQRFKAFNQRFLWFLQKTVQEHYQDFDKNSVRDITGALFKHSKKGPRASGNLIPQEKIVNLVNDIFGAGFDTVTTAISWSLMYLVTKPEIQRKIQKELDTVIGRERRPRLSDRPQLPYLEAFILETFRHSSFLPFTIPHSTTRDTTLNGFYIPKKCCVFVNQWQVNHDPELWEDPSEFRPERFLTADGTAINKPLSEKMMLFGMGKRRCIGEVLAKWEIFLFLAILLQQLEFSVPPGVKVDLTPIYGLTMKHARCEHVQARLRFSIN
Polyunsaturated fatty acid lipoxygenase ALOX15 (Homo sapiens), sequence (P16050 whole entry): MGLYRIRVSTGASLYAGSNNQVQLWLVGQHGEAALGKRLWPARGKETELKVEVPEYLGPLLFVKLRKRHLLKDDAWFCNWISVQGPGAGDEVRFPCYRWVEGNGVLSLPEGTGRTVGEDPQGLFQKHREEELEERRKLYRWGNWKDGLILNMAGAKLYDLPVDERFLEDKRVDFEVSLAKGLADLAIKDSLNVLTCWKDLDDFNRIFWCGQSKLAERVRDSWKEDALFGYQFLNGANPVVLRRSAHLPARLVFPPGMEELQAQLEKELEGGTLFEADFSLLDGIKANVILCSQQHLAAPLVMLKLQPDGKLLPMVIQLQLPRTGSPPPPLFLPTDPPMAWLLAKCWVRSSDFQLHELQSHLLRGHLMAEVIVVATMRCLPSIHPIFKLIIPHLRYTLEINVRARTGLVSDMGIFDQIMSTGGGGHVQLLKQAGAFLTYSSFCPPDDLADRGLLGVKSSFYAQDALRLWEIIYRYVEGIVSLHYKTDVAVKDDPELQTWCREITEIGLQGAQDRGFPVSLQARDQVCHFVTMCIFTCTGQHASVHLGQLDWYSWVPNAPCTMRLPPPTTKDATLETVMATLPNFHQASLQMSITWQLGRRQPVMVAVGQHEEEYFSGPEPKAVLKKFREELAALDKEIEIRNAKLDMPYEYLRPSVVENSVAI
Mitogen-activated protein kinase 1 (Homo sapiens), sequence (P28482 whole entry): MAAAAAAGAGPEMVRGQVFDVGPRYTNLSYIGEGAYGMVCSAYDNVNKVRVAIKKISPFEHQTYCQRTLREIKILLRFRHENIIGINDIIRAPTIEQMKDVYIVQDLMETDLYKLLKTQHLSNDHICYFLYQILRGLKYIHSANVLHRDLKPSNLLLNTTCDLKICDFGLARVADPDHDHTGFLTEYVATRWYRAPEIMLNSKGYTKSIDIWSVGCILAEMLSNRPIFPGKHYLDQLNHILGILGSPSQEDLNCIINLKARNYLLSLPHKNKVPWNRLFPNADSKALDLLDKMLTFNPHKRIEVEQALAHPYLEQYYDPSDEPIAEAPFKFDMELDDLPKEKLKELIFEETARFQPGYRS
Interstitial collagenase (Homo sapiens), sequence (P03956 whole entry): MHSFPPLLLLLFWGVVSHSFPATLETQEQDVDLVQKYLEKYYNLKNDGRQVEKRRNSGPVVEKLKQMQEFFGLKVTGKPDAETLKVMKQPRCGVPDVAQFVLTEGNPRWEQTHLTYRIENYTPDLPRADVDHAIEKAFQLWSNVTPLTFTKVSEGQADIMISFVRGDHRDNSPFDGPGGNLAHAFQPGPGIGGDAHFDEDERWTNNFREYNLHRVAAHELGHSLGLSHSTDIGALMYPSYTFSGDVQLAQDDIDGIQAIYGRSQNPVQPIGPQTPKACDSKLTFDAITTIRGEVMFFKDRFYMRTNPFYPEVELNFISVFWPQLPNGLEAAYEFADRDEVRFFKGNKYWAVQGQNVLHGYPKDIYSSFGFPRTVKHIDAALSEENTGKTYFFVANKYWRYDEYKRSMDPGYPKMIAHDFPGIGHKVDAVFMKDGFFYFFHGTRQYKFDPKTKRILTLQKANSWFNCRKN
Vasoactive intestinal polypeptide receptor 1 (Homo sapiens), sequence (P32241 whole entry): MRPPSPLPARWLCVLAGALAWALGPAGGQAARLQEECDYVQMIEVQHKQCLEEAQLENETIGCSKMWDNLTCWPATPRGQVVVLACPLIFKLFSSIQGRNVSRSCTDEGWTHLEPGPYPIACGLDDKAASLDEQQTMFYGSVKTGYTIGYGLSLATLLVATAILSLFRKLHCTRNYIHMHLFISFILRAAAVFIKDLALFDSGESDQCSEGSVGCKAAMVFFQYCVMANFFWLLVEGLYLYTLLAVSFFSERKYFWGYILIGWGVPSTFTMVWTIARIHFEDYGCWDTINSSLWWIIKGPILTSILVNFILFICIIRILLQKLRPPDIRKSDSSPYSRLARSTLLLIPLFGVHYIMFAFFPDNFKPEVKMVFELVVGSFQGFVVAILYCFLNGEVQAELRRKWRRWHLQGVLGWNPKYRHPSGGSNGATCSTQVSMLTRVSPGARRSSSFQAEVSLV
B2 bradykinin receptor (Homo sapiens), sequence (P30411 whole entry): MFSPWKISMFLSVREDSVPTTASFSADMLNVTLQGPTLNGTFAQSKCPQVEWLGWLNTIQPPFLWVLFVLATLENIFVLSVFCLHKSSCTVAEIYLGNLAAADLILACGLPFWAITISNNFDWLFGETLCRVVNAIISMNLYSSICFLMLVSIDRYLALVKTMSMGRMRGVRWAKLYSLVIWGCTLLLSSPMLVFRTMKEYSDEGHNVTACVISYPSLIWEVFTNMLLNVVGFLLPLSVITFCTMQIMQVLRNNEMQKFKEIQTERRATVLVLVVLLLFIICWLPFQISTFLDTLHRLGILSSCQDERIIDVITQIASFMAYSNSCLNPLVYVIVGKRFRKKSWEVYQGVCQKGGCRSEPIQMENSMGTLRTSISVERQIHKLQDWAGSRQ
CYP2C9, sequence (P11712 whole entry): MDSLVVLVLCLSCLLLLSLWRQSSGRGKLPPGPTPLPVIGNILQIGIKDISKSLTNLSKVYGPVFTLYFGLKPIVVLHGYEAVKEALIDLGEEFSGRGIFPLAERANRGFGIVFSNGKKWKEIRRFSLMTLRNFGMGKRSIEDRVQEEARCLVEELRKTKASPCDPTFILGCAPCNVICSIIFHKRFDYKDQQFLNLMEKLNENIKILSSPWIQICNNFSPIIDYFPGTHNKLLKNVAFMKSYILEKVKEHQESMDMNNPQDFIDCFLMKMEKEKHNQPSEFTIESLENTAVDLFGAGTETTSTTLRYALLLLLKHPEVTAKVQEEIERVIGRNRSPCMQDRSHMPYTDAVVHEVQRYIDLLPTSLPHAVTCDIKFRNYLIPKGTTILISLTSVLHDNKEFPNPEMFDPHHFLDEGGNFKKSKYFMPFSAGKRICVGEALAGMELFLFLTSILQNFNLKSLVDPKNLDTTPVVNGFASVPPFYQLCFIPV
Cholecystokinin receptor type A (Homo sapiens), sequence (P32238 whole entry): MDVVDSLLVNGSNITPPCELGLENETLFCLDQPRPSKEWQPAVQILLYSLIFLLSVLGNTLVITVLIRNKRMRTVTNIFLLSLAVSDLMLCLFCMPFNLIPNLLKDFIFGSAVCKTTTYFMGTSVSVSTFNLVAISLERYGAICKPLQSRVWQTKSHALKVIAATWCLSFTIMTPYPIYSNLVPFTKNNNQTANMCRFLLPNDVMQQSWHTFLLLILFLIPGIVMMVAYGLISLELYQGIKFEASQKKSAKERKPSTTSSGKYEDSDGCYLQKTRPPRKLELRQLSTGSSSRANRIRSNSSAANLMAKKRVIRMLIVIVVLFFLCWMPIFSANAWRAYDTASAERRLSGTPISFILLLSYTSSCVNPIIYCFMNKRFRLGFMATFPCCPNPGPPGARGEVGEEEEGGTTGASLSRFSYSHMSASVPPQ
Beta-3 adrenergic receptor (Homo sapiens), sequence (P13945 whole entry, looked up): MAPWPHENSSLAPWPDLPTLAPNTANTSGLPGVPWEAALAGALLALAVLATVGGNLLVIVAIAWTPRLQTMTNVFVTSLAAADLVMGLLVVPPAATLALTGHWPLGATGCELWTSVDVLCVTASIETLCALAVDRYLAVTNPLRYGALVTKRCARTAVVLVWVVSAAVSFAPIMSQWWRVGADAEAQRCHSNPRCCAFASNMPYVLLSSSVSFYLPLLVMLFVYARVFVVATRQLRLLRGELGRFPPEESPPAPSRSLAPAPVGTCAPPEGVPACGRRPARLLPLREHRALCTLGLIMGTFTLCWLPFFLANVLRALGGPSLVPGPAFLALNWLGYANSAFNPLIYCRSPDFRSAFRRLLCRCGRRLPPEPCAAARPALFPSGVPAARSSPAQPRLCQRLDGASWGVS
Neutrophil elastase (Homo sapiens), sequence (P08246 whole entry): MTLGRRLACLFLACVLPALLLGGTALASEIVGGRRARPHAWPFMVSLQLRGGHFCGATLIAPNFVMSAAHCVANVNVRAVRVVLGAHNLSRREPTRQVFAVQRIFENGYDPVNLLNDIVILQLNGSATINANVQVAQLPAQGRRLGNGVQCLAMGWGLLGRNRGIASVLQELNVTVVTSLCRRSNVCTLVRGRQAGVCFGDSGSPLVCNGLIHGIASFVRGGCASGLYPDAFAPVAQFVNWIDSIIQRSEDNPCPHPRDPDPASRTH
5-hydroxytryptamine receptor 1A (Homo sapiens), sequence (P08908 whole entry): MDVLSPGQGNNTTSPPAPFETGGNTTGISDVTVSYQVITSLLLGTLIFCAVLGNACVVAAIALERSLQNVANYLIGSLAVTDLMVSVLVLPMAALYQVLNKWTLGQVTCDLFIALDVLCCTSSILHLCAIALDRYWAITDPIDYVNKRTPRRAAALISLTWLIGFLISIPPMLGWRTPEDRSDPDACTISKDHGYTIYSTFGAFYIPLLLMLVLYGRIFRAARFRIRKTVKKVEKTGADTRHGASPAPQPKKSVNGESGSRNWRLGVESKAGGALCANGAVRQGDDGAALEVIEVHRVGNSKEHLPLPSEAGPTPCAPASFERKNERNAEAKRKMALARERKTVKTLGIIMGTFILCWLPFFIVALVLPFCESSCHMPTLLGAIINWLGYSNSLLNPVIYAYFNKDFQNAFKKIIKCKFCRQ

`O=C(NCc1ncc(C(F)(F)F)cc1Cl)c1ccc2c(c1)C1(CCS(=O)(=O)CC1)[C@H](C1CC1)N2S(=O)(=O)c1ccc(F)cc1` [BAY-784] was tested, and the inhibition [1] was 17%, the inhibition [2] was 4% and the inhibition [3] was 22%. It also gave an inhibition (Rattus norvegicus) of 7.97%, an inhibition [4] of 11% and an inhibition [5] of 4%. The inhibition at 10 µM (CYP2C9) was 32% (not active), the inhibition [6] was 0% and the inhibition [7] was -4%. For the same compound, the inhibition [8] was 2%, the inhibition [9] was 6% and the inhibition [10] was -4%. For the same compound, the inhibition at 10 µM (CYP1A2) was -2% (not active), the inhibition [11] was 0% and the inhibition [12] was 5%. It also gave an inhibition [13] of 7%, an inhibition [14] of 9% and an inhibition [15] of 4%. For the same compound, the inhibition [16] was 14%, the inhibition [17] was 53% and the inhibition [18] was 0%. The inhibition [19] was -3% and the inhibition at 10 µM (CYP2D6) was 4% (not active).
